Marks after values point to notes of the source that are not given here.
How the values were obtained:
[1] = Analysis of fecal bile acid levels in the diet-supplemented rats; type: in vivo
Protocol: (§1) Protocol of Study. All rats were fed their assigned diets for 2 weeks, following which 10 rats in each group (except control group) were given s.c. injections of AOM (Sigma Chemical Co.; 15 mg/kg body weight) once a week for 2 weeks, while 5 rats received AOM vehicle. Control rats received AOM vehicle only. A week later (at week 3) rats received a second dose of carcinogen (AOM 15 mg/kg) while control rats received AOM vehicle. Each group was then maintained on their respective experimental diet for an additional 3 weeks. At this time, day 42, the rats were sacrificed; their colons were removed, opened, washed with normal saline, and examined macroscopically and microscopically for the presence of tumors. Aberrant crypts were quantified by direct microscopic counting of methylene blue stained whole colon. Stool specimens were removed from the colon at the time of termination, snap frozen, and maintained frozen for subsequent analysis of fecal bile acids.
Therefore, 6-FUDCA enriches rat bile with therapeutic bile acid to a greater extent then can UDCA. Furthermore, 6-FUDCA reduces the formation of bile acids which are potentially toxic to the colonic mucosa.

[2] = system: aberrant crypt foci (ACF) in AOM rat model; experiment: Development of ACF in AOM rat model, 5 weeks study; type: in vivo, Male albino Fischer-344 rats; settings: diet with UDCA 0.4%, 6-FUDCA 0.4% or piroxicam 75 ppm, means ± Std. Dev., N=10
Excerpt: as §1, with “Animals. Male albino Fischer-344 rats, initially weighing approximately 90-130 g, were used in these experiments. All diets were obtained from Dyets, Inc. (Bethlehem, Pa.). On arrival, the animals were quarantined for 1 week and then divided into the following experimental groups: Group 1—Standard AIN-76 diet only with no added agents (control group). Group 2—AIN-76 diet plus UDCA 0.4%. Group 3—AIN-76 diet plus 6-FUDCA 0.4%. Group 4—AIN-76 diet plus piroxicam 75 ppm (included for a known positive drug control). Protocol” for “Protocol”, “acids. Statistical Methods. The data were analyzed using the Aspin-Welch t-test, two sided. A value of P<0.05 was considered significant.” for “acids.”

[3] = system: intestinal bacterial flora; settings: 7-dehydroxylation by intestinal bacterial flora; cited from earlier work
[4] = Physicochemical properties of 6-FUDCA compared with UDCA
Excerpt: Additionally, the retention time on C-18 reverse phase HPLC was different for the two fluorinated diastereoisomers. […] The invention relates to the single isomers or diastereoisomers of 6-FUDCA and mixtures thereof.

[5] = system: aberrant crypt foci (ACF) in AOM rat model; experiment: Development of ACF in AOM rat model, 12 weeks study; type: in vivo, Male albino Fischer-344 rats; settings: for Multiplicity of ACF / Nr of ACF / Total AC count: AOM rat model, 12 weeks study, diet supplementation, means ± Std. Dev., N=12
Protocol: Animals. Male albino Fischer-344 rats, initially weighing approximately 90-130 g, were used in these experiments. All diets were obtained from Dyets, Inc. (Bethlehem, Pa.). On arrival, the animals were quarantined for 1 week and then divided into the following experimental groups: Protocol of Study. […] Control rats received AOM vehicle only. A week later (at week 3) rats received a second dose of carcinogen (AOM 15 mg/kg) while control rats received AOM vehicle. […] Aberrant crypts were quantified by direct microscopic counting of methylene blue stained whole colon. Stool specimens were removed from the colon at the time of termination, snap frozen, and maintained frozen for subsequent analysis of fecal bile acids. Statistical Methods. The data were analyzed using the Aspin-Welch t-test, two sided. A value of P<0.05 was considered significant. The protocol for this Example was the same as that for Example I except that 12 rats were included in each AOM-treated group and 6 rats in each control group. Carcinogen was administered on Days 14 and 21. The rats were then continued on the diets containing the experimental drugs for an additional 10 weeks. The following tables set forth the data obtained in the study.

## C[C@H](CCC(=O)O)[C@H]1CC[C@H]2[C@@H]3[C@@H](O)[C@H](F)[C@@H]4C[C@H](O)CC[C@]4(C)[C@H]3CC[C@]12C [6-FUDCA, 3α, 7βdihydroxy-6α-fluoro-5β-cholanoic acid]
[1]; 6-FUDCA rats compared with UDCA rats
  DC and hyoDC in the feces: less DC and hyoDC are seen in the feces of 6-FUDCA rats than in UDCA rats
[1]; rat, fecal bile acid analysis
  Metabolism by bacteria in the gut: not metabolized by bacteria in the gut
[2]
  Multiplicity of ACF: 1.9 ± 0.1^b)
  Nr of ACF: 84.4 ± 16.3
  Total AC count: 160.7 ± 34.6^b)
[3]
  Resistance to bacterial dehydroxylation: extremely resistant to bacterial dehydroxylation
[4]; 6-α-epimer, with respect to UDCA
  Hydrophilicity (C-18 reverse phase HPLC): increased hydrophilicity with respect to UDCA
[4]; compared with UDCA
  Critical micellar concentration: slightly lower
  Critical micellar pH: lower than that of UDCA
  Water solubility: higher than that of UDCA
[5]
  Multiplicity of ACF: 2.7 ± 0.3^b)
  Nr of ACF: 130.1 ± 35.5^b)
  Total AC count: 350.6 ± 87.3^b)
[5]; rats treated with 6-FUDCA, AOM model
  Aberrant crypts per aberrant crypt focus (FIG. 3): aberrant crypt foci with fewer aberrant crypts

## C[C@H](CCC(=O)O)[C@H]1CC[C@H]2[C@@H]3[C@@H](O)C[C@@H]4C[C@H](O)CC[C@]4(C)[C@H]3CC[C@]12C [UDCA, ursodeoxycholic acid]
[2]
  Multiplicity of ACF: 2.0 ± 0.2^b)
  Nr of ACF: 108.1 ± 34.7
  Total AC count: 218.3 ± 73.3^b)
[5]
  Multiplicity of ACF: 2.8 ± 0.2^b)
  Nr of ACF: 161.2 ± 37.8^b)
  Total AC count: 445.5 ± 87.4^b)

## CN1C(C(=O)Nc2ccccn2)=C(O)c2ccccc2S1(=O)=O [PIROXICAM, piroxicam]
[2]
  Multiplicity of ACF: 3.0 ± 0.2
  Nr of ACF: 62.9 ± 9.4^b)
  Total AC count: 190.1 ± 30.7^b)
[5]
  Multiplicity of ACF: 3.4 ± 0.3
  Nr of ACF: 156.3 ± 34.0^b)
  Total AC count: 625.3 ± 136.1^b)

Source: US6426340B1, “Prevention and treatment of colorectal cancer by 6-fluoroursodeoxycholic acid (6-FUDCA)” (Novartis AG, priority 1996, dated 2002)
